Assay results published in paper PMC10542159 (bioRxiv, 2023).

What was measured:
[1] = molecular target: T1, spermidine/spermine acetyltransferase 1 (SAT1) (Homo sapiens, UniProt P21673); assay: continuous spectrophotometric acetyltransferase assay, […] spermidine as substrate; assay type: biochemical
SpeG = molecular target: T2, SpeG (Escherichia coli, UniProt P0A951); assay: continuous spectrophotometric acetyltransferase assay; assay type: biochemical
T2 sequence (P0A951 1-186): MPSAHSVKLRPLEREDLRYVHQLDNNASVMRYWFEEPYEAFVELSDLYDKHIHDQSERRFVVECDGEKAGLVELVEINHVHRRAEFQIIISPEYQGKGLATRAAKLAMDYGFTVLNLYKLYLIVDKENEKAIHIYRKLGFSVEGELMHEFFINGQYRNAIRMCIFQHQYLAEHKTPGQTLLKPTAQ

PA1472 = PA1472 (Pseudomonas aeruginosa, UniProt Q9I3P0)
[2] = molecular target: T1, spermidine/spermine acetyltransferase 1 (SAT1)
[3] = substrate: NCCCCNCCCN; assay: continuous spectrophotometric enzyme kinetics; assay type: biochemical, Escherichia coli; settings: acetyl-CoA

T1 sequence (P21673 whole entry): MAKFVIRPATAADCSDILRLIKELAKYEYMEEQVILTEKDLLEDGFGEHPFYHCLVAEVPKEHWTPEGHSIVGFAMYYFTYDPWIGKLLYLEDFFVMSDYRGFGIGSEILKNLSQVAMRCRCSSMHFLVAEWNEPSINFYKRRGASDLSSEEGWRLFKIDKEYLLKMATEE
PA1472, sequence (Q9I3P0 1-184): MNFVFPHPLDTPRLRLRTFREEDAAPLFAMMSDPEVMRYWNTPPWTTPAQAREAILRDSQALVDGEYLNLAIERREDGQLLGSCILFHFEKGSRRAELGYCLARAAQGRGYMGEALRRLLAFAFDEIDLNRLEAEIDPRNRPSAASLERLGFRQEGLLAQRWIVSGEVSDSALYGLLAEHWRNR

Molecule: N=C(N)c1ccc(/N=N/Nc2ccc(C(=N)N)cc2)cc1 [diminazene]
- IC50 [1]: 21 ± 0.6 µM
- IC50 (SpeG): 26.2 ± 3.7 µM

Molecule: NCCCCN [putrescine]
- Km (PA1472): 30.7 ± 9.9 mM
- Km [2]: 8.7 ± 2.43 mM

B1: SpeG (Escherichia coli K-12) (protein)
chain: MPSAHSVKLRPLEREDLRYVHQLDNNASVMRYWFEEPYEAFVELSDLYDKHIHDQSERRFVVECDGEKAGLVELVEINHVHRRAEFQIIISPEYQGKGLATRAAKLAMDYGFTVLNLYKLYLIVDKENEKAIHIYRKLGFSVEGELMHEFFINGQYRNAIRMCIFQHQYLAEHKTPGQTLLKPTAQ
- K0.5 [3]: 590.1 ± 30.8 µM
